We go through eight substances from patent US11376231B2, “Compositions of bioactive fulvate fractions and uses thereof” (OMNI BIOCEUTICAL INNOVATIONS, INC., priority 2016, dated 2022).

Like-named read-outs stand apart in the source and are kept apart here. Ends that are not written are not given here.

For one assay, the system named is chronic wounds. The arrangement: key: N.S. = not statistically significant. The note with it: cited from earlier work.
The test system of the next assay is human keratinocytes. As to the kind of experiment: Stimulation of keratinocytes: expression of antimicrobial peptides/polypeptides (Northern blot, ELISA, immunoblot, immunostaining). It counts as cell-based. The settings on record: for expression of the antimicrobial peptides/polypeptides hCAP-18, hBD-3, NGAL, and SLPI: human keratinocytes; for mRNA for hBD-3 (induction): not detected in unstimulated cells. On the procedure: SDS-PAGE and immunoblotting were performed with Bio-Rad systems according to instructions given by the manufacturer (Bio-Rad, Hercules, Calif.). For immunoblotting, after the transfer of proteins from the 14% polyacrylamide gels, the polyvinylidene difluoride (PVDF) membranes (Millipore, Bedford, Mass.) were blocked for 1 h with 5% skimmed milk in PBS. For detection of hCAP-18, NGAL, and SLPI, the PVDF membranes were incubated overnight with primary antibodies. The following day, the membranes were washed and incubated for 2 h with alkaline phosphatase-conjugated secondary antibodies (DAKO, Glostrup, Denmark) then washed and visualized by 5'-bromo-chloro-indolyl phosphate (Sigma-Aldrich) and nitro blue tetrazolium (Sigma-Aldrich). Medium from keratinocytes was extracted with MacroPrep CM Support beads (Bio-Rad) overnight at 4° C. The beads were subsequently washed and bound material was eluted with 30% acetic acid. The eluted material was dialyzed in 5% acetic acid and lyophilized before resuspension in sample buffer for acid urea (AU)-PAGE. AU-PAGE and immunoblotting were performed according to instructions given by the manufacturer (Hoeffer, San Francisco, Calif.). After transfer of proteins from the 12.5% acrylamide gels, the PVDF membranes were fixed for 30 min in TBS with 0.05% glutaraldehyde (Sigma-Aldrich), followed by blocking with Superblock Blocking Buffer (Pierce, Rockford, Ill.). For visualization of hBD-3, the PVDF membranes were incubated overnight with primary antibodies. The following day, the membranes were incubated for 2 h with HRP-conjugated secondary antibodies, (Pierce) and visualized by Immun-Star HRP luminal/enhancer and Immun-Star peroxide buffer (Bio-Rad). Cells were grown in serum-free keratinocyte medium from Clonetics (KGM-2 Bullet Kit; San Diego, Calif.) with bovine pituitary extract, transferrin, human epidermal growth factor (EGF), hydrocortisone, gentamicin, amphotericin B, and epinephrine, but without insulin. Cells were stimulated beginning 24 h after complete confluence was reached. Cells and medium was harvested 0, 3, 6, 12, 24, and 48 h after stimulation with IGF-I (100 ng/mL), TGF-α (50 ng/mL), TGF-β1 (10 ng/mL), hFGF (100 ng/mL), IGF-I/TGF-α, IL-1β (20 ng/mL), IL-6 (100 ng/mL), EGF (100 ng/mL), and INF-α (20 ng/mL). […] The RNA was transferred to a Hybond-N membrane (Amersham Pharmacia Biotech, Little Chalfont, U.K.) by capillary blotting and was fixed by UV irradiation. The filters were pre-hybridized for a minimum of 30 min at 42° C. in 10 mL of ULTRAhyb (Ambion, Austin, Tex.) and hybridized overnight at 42° C. after the addition of an additional 5 mL of ULTRAhyb containing the P-labeled probe. The membranes were washed twice for 5 min each time at 42° C. in 2×SSC (1×SSC=150 mM NaCl/15 mM sodium citrate, pH 7.0)/0.1% SDS, followed by twice for 15 min each time in 2×SSC/0.1% SDS, once for 15 min in 0.2×SSC/0.1% SDS, and once for 15 min in 0.1×SSC/0.1% SDS at 42° C. The blot was developed and quantified by a phosphorimager (Fuji Imager Analyzer BAS-2500, Image Reader version 1.4E, image Gauge version 3.01 software; Fuji, Stockholm, Sweden). The sizes of the mRNAs were determined by reference to 18S and 285 rRNA, which were visualized by ethidium bromide staining. The membranes were stripped by boiling in 0.1% SDS before re-hybridization. The probes used for hybridization were cDNA fragments radiolabeled with [α-P]dCTP using the Random Primers DNA Labeling System (Life Technologies). The probes NGAL, hCAP-18, hBD-2, and β-actin have previously been described. The probes for SLPI, hBD-1, and hBD-3 were amplified from cDNA from keratinocytes with the following primers: SLPI, [NT] II) NO: 1), and [NT] ID NO: 2); hBD-1, [NT] ID NO: 3), and [NT] ID NO: 4); and hBD-3, [NT] ID NO: 5), and [NT] ID NO: 6). The probe for hBD-4 was amplified from genomic DNA using the following primers: [NT] ID NO: 7) and [NT] II) NO: 8). PCR-amplified probes were cloned into plasmids and verified by DNA sequencing. […]

The test system of another assay is CBA Epidermal Culture. Put plainly: Tissue repair in human epidermal cell culture with 4-mm defect (bFGF, M-007). It counts as cell-based. The protocol: A 4-mm mucosal defect was surgically made in the CBA Epidermal Culture. The formulation Sol. of bFGF, M-007, and control saline was injected along the edge of the wound defect immediately after scratch. The control group received only phosphate-buffered saline vehicle.
By day 5, FGFR1-positive cells were seen below the stratum corneum, even in the control group. […] Each sample was repeated in duplicate, thus FIG. 2 represents the average of each sample. P1-2 are control plates 1 and 2 and are epidermal cell culture with no external treatment. P3-4 is epidermal cell culture treated with phosphate buffered saline only. P5-6 is epidermal cell culture treated with bFGF. P7-8 is epidermal cell culture treated with bFGF sol. No. 00376. […] No. 00321A. […] No. 0032113. […] No. 00321A @ 70/30 ratio. […] No. 00321A @ 30/70 ratio. […] No. 00321A 70/30 ratio. P21-22 is epidermal cell culture treated with bFGF sol. […] No. 00321A @50/50 ratio. P23-24 is epidermal cell culture treated with bFGF sol. […] No. 00321A @30/70 ratio.

In another assay the test system is skin wounds. As to the kind of experiment: Screen of tigerinin-based peptides for wound-healing ability. The text has this:
Two antimicrobial peptides (tigerinin-RC1: […] (SEQ ID NO: 9); tigerinin-RC2: […] (SEQ ID NO: 10)) have been previously identified from the skin secretions of Fejervarya cancrivora. […] Here, several peptides based on tigerinins are synthesized to screen candidates containing potential wound-healing ability.

For the substance “EGF: epidermal growth factor (NSDSECPLSHDGYCLHDGVCMYIEALDKYACNCVVGYIGERCQYRDLKWWELR; UniProt P01133 971-1023, looked up)”, the Results result in the assay on chronic wounds (venous (44), 10 μg/mL twice per day, Falanga et al.) was “N.S”.

Turning to “GM-CSF: granulocyte-macrophage colony-stimulating factor”, the Results result with chronic wounds (venous + arterial (25), 400 μg injected once around the wound, da Costa et al.) is “N.S”.

With HGH: human growth hormone, the Results entry with chronic wounds (venous (37), 1 IU/cm^2 per week, Rasmussen et al.) was “N.S”.

Regarding IGF-I: insulin growth factor-1, the “expression of hBD-1 relative to the housekeeping gene β-actin” value in the assay on human keratinocytes (24 h) turned out to be 3 fold. Moreover, in the assay with human keratinocytes (48 h), the “expression of hBD-1 relative to the housekeeping gene β-actin” value is 7 fold. Further, the “expression of the antimicrobial peptides/polypeptides hCAP-18, hBD-3, NGAL, and SLPI” value with human keratinocytes is reported as “induce or enhance”. Besides, in the assay with human keratinocytes (keratinocytes), the “hCAP-18 at the protein level (ELISA) and the mRNA level” value is “up-regulated”; the “mRNA for hBD-3 (induction)” value was “did not induce”.

For the substance IL-1B: interleukin-1B, the Results result in the assay on chronic wounds (pressure (25), 0.01, 0.1, and 1 μg/cm^2 daily, Robson et al.) is “N.S”.

For the substance TGF-α: a transforming growth factor, the “expression of the antimicrobial peptides/polypeptides hCAP-18, hBD-3, NGAL, and SLPI” value with human keratinocytes is given as “induce or enhance”. The “mRNA for hBD-3 (induction)” value in the assay on human keratinocytes (keratinocytes) is “significantly induced”. Moreover, the “hBD-3 in the medium by immunoblot” value in the assay on human keratinocytes (medium from stimulated keratinocytes, not in unstimulated cells) is “detected”.

Regarding bFGF: basic fibroblast growth factor, in the assay on CBA Epidermal Culture, the “collagen maturation (histologic analysis)” value is recorded as “relatively faster”. For the same substance, the “granular tissue formation and re-epithelialization” value with CBA Epidermal Culture is given as “significantly accelerated”. The “number and intensity of FGFR1-positive cells versus control group” value in the assay with CBA Epidermal Culture (day 5) was “greater than in the control group”. Besides, the Results result is “N.S” in the assay with chronic wounds (diabetic (17), 0.25 to 0.75 μg/cm^2 daily, Richard et al.); “N.S” in the assay with chronic wounds (pressure (50), 1, 5, and 10 μg/cm^2, Robson et al.).

For the substance “c [WCKPKPKPRCH-NH2] (SEQ ID NO: 11) (not fully specified (bridges); also: cyclic, ring type and places not given here; listed as Fejervarya cancrivora) [M-007 fulvate isolated peptide, tigerinin-based synthesized small peptide]”, the wound-healing ability result with skin wounds was “potent healer of skin wounds”.
